Laboratory results reported in article PMC10323144, “Garbage in, garbage out: how reliable training data improved a virtual screening approach against SARS-CoV-2 MPro” (Frontiers in Pharmacology, 2023).

Target: SARS-CoV-2 MPro (Severe acute respiratory syndrome coronavirus 2, UniProt P0DTD1)
Assay: MPro activity assay (de-quenching of Edans fluorescence on cleavage of a Dabcyl/Edans peptide)
Type: biochemical
Settings: for Class (MPro activity class): in-house acquired data, internal screening under standardized conditions (128 compounds)

| SMILES | IC50 (60 min pre-incubation, 5 μM substrate) | Class (MPro activity class) | activity at 25 µM (read-out: % activity MPro) |
| --- | --- | --- | --- |
| Cc1ccc(S(=O)(=O)Nc2nc3cc(Cl)c(Oc4cccc(Cl)c4Cl)cc3[nH]2)cc1 [Cpd 31] | > 25 µM | 0 (compounds with IC50 > 20 μM, percentage inhibition <80% at 20 µM or 50 μM, or percentage enzyme inhibition <50% at 10 µM were labelled as INACTIVE) |  |
| Nc1cccc(C(=O)Nc2nc3c(s2)CC(NC(=O)c2cc(Br)c(Br)[nH]2)CC3)c1 (stereo not drawn) [Cpd 46] |  | 0 (compounds with IC50 > 20 μM, percentage inhibition <80% at 20 µM or 50 μM, or percentage enzyme inhibition <50% at 10 µM were labelled as INACTIVE) |  |
| O=C(Nc1nc2c(s1)CC(NC(=O)c1cc(Br)c(Br)[nH]1)CC2)c1c[nH]cn1 (stereo not drawn) [Cpd 47] |  | 0 (compounds with IC50 > 20 μM, percentage inhibition <80% at 20 µM or 50 μM, or percentage enzyme inhibition <50% at 10 µM were labelled as INACTIVE) |  |
| Nc1nc2c(s1)CC(NC(=O)c1cc3cc(F)ccc3[nH]1)CC2 (stereo not drawn) [Cpd 48] |  | 0 (compounds with IC50 > 20 μM, percentage inhibition <80% at 20 µM or 50 μM, or percentage enzyme inhibition <50% at 10 µM were labelled as INACTIVE) |  |
| NC1CCc2nc(NC(=O)c3cc(Cl)c(Cl)[nH]3)sc2C1 (stereo not drawn) [Cpd 49] |  | 0 (compounds with IC50 > 20 μM, percentage inhibition <80% at 20 µM or 50 μM, or percentage enzyme inhibition <50% at 10 µM were labelled as INACTIVE) |  |
| CCOC(=O)C(=O)NC1CCc2nc(NC(=O)c3cc(Cl)c(Cl)[nH]3)sc2C1 (stereo not drawn) [Cpd 50] |  | 0 (compounds with IC50 > 20 μM, percentage inhibition <80% at 20 µM or 50 μM, or percentage enzyme inhibition <50% at 10 µM were labelled as INACTIVE) |  |
| O=C(O)C(=O)NC1CCc2nc(NC(=O)c3cc(Cl)c(Cl)[nH]3)sc2C1 (stereo not drawn) [Cpd 51] |  | 0 (compounds with IC50 > 20 μM, percentage inhibition <80% at 20 µM or 50 μM, or percentage enzyme inhibition <50% at 10 µM were labelled as INACTIVE) | 107 ± 5.7% |
| COc1cccc(-n2c(NCCN3CCNCC3)nc3sc4c(c3c2=O)CCCC4)c1 [Cpd 52] |  | 0 (compounds with IC50 > 20 μM, percentage inhibition <80% at 20 µM or 50 μM, or percentage enzyme inhibition <50% at 10 µM were labelled as INACTIVE) |  |
| COC(=O)CC(=O)Nc1nc2c(s1)CC(NC(=O)c1[nH]c(C)c(Cl)c1Cl)CC2 (stereo not drawn) [Cpd 53] |  | 0 (compounds with IC50 > 20 μM, percentage inhibition <80% at 20 µM or 50 μM, or percentage enzyme inhibition <50% at 10 µM were labelled as INACTIVE) |  |
| Cc1[nH]c(C(=O)NC2CCc3nc(NC(=O)CC(=O)O)sc3C2)c(Cl)c1Cl (stereo not drawn) [Cpd 54] |  | 0 (compounds with IC50 > 20 μM, percentage inhibition <80% at 20 µM or 50 μM, or percentage enzyme inhibition <50% at 10 µM were labelled as INACTIVE) |  |
| CCOC(=O)C(=O)Nc1nc2c(s1)CC(NC(=O)c1cc(Br)c(Br)[nH]1)CC2 (stereo not drawn) [Cpd 55] |  | 0 (compounds with IC50 > 20 μM, percentage inhibition <80% at 20 µM or 50 μM, or percentage enzyme inhibition <50% at 10 µM were labelled as INACTIVE) |  |
| O=C(O)C(=O)Nc1nc2c(s1)CC(NC(=O)c1cc(Br)c(Br)[nH]1)CC2 (stereo not drawn) [Cpd 56] |  | 0 (compounds with IC50 > 20 μM, percentage inhibition <80% at 20 µM or 50 μM, or percentage enzyme inhibition <50% at 10 µM were labelled as INACTIVE) |  |
| CCN(CC)c1ccc(-c2ccc(C(=O)OC)cc2)cc1 [Mal1] |  | 0 (compounds with IC50 > 20 μM, percentage inhibition <80% at 20 µM or 50 μM, or percentage enzyme inhibition <50% at 10 µM were labelled as INACTIVE) |  |
| COC(=O)c1ccc(-c2ccc(C3C(Oc4ccccc4)C(=O)N3Cc3ccccc3)cc2)cc1 (stereo not drawn) [Mal2] |  | 0 (compounds with IC50 > 20 μM, percentage inhibition <80% at 20 µM or 50 μM, or percentage enzyme inhibition <50% at 10 µM were labelled as INACTIVE) |  |
| O=C1C(Oc2ccccc2)C(c2ccc(B(O)O)cc2)N1Cc1ccccc1 (stereo not drawn) [Mal3] |  | 0 (compounds with IC50 > 20 μM, percentage inhibition <80% at 20 µM or 50 μM, or percentage enzyme inhibition <50% at 10 µM were labelled as INACTIVE) |  |
| CC(C)(C)OC(=O)N1CCC(Oc2cc(C(=O)NCC(=O)O)ccc2NC(=O)c2cc(Br)c(Br)[nH]2)CC1 [UL-DBT26] |  | 0 (compounds with IC50 > 20 μM, percentage inhibition <80% at 20 µM or 50 μM, or percentage enzyme inhibition <50% at 10 µM were labelled as INACTIVE) |  |
